Target: Androgen receptor (Mus musculus) (UniProt P19091)
Experiment: Antagonist activity at wild type AR expressed in mouse SC-3 cells assessed as inhibition of 1 nM DHT-induced cell proliferation after 3 days by WST-8 assay; call rule not given here

Sequence of Androgen receptor (Mus musculus) (P19091 whole entry, looked up): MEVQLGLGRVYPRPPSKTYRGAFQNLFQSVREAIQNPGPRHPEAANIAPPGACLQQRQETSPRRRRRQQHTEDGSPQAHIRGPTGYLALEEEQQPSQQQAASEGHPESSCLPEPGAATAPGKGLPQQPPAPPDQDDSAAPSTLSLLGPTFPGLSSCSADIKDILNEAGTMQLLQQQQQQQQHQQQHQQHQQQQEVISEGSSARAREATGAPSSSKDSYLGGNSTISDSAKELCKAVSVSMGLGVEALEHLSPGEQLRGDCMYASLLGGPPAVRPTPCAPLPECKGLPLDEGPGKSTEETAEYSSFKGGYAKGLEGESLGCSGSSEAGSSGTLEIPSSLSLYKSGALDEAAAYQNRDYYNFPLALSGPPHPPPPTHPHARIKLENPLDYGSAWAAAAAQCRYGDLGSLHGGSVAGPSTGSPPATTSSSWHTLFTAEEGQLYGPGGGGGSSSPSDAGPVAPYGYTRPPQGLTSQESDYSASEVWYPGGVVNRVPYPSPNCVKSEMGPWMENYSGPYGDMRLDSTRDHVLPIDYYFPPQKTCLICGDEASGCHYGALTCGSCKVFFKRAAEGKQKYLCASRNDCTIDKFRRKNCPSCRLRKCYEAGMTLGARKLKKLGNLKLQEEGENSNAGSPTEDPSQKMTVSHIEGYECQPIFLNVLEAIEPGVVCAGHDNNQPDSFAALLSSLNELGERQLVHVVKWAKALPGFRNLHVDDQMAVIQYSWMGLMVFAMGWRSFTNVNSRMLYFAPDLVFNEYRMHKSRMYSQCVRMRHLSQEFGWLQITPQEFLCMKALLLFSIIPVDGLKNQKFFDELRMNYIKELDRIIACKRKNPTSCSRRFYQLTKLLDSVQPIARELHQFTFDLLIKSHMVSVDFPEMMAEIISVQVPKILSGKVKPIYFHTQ

In the case of `O=[N+]([O-])c1ccc(Cc2nnc(O)c3ccccc23)cc1`, the IC50 is reported as “Not Active”.
In the case of `CNc1ccc(Cc2n[nH]c(=O)c3ccccc23)cc1`, the IC50 is reported as “Not Active”.
For `Nc1ccc(Cc2n[nH]c(=O)c3ccccc23)cc1`, the IC50 was “Not Active”.
`CN(C)c1ccc(Cc2n[nH]c(=O)c3ccccc23)cc1` was tested, and the IC50 was “Not Active”.
With `CS(=O)(=O)Nc1ccc(Cc2n[nH]c(=O)c3ccccc23)cc1` the IC50 was “Not Active”.
In the case of `O=C(Nc1ccc(Cc2n[nH]c(=O)c3ccccc23)cc1)C(F)(F)F`, the IC50 is reported as “Not Active”.
For `O=C(O)c1ccccc1Cc1n[nH]c(=O)c2ccccc12`, the IC50 was “Not Active”.
With `CC(=O)Nc1ccc(Cc2n[nH]c(=O)c3ccccc23)cc1` the IC50 was “Not Active”.
In the case of `CC(=O)Nc1ccccc1Cc1n[nH]c(=O)c2ccccc12`, the IC50 is reported as “Not Active”.
For `CCN(CC)c1ccc(Cc2n[nH]c(=O)c3ccccc23)cc1`, the IC50 was “Not Active”.
`CS(=O)(=O)Nc1ccccc1Cc1n[nH]c(=O)c2ccccc12` was tested, and the IC50 was “Not Active”.
`CCNc1ccc(Cc2n[nH]c(=O)c3ccccc23)cc1` was tested, and the IC50 was “Not Active”.
